US7501399B2, “Immunoeffector compounds” (Corixa Corporation, priority 2000, dated 2009)

Experiments:
HBsAg = experiment: Adjuvant activity towards HBsAg, IgG1 and IgG2a isotype titers by ELISA (Example 4); format: in vivo, BALB/c mice
Experimental: IgG1 and IgG2a isotype titers to HBsAg were determined by ELISA from pooled sera collected 21 days post secondary (Table 3). The nonimmune controls were not vaccinated. […] RC-553 stimulated titers equivalent to the positive controls, MPL® immunostimulant (Table 3).

TNF-α = experiment: Ex vivo cytokine induction in human whole blood, TNF-α sandwich ELISA; format: cell-based; settings: 1, 5 and 10 μg/ml in the assay; 4 hr at 37° C.
Experimental: (§1) The effects of RC-553 on the elaboration of TNF-α and IL-1β was measured under ex vivo conditions on human peripheral blood mononuclear cells. MPL® immunostimulant and RC-553 were formulated in aqueous solutions of 0.2% TEoA/WFI.
(§2) Human whole blood was used to evaluate the ability of glycolipids (AGPs) to induce proinflammatory cytokines. Human whole blood is collected into heparinized tubes and 0.45 ml of whole blood is admixed with 0.05 ml phosphate buffered saline (PBS, pH 7.4) containing the glycolipid (i.e., the test compounds). The tubes are incubated for 4 hr at 37° C. on a shaker apparatus. The samples are then diluted with 1.5 ml sterile PBS and centrifuged. The supernatants are removed and analyzed for […] TNF-α and IL-1β by sandwich ELISA using R&D Systems' Quantikine immunoassay kits for human TNF-α and IL-1β.

IL-1β = experiment: Ex vivo cytokine induction in human whole blood, IL-1β sandwich ELISA; format: cell-based
Experimental: as §1, §2

[1] = tested on: HBsAg (Hepatitis B Surface Antigen); experiment: Adjuvant activity towards HBsAg, serum titers by ELISA (Example 2); format: in vivo, BALB/c mice
Experimental: Vaccines were prepared by mixing the adjuvant-containing TEoA (triethanolamine) formulations with recombinant HBsAg. Titers to HBsAg were determined by ELISA from pooled sera (5 mice/group) collected 21 days post-secondary vaccination (Table 1). The nonimmune controls were not vaccinated.

iNOS = iNOS induction in IFN-γ primed J774 murine macrophages, Greiss reagent nitrite release; format: cell-based; settings: J774 cells primed with IFN-γ
Experimental: This example illustrates the effects of various glycolipids on iNOS induction in J774 murine macrophages. The murine macrophage cell line J774 can be primed by IFN-γ in vitro and is very responsive to subsequent LPS stimulation of iNOS upregulation as measured by a standard Greiss reagent ELISA assay procedure. The assay utilizes J774 cells seeded at 1×10^6/mL with 30 mL/flask and with IFN-γ added at 100 units/mL for 16-24 hrs. Cells are then harvested and washed and resuspended at 2×10^5/well in a 96-well plate and allowed to adhere. Glycolipid compounds are serially diluted into the wells for a test group and the resulting cultures are incubated for another 36-40 hrs before culture supernatants are collected from Greiss reagent analysis of nitrite release (Green et al. (1982) Anal. Biochem. 126: 131-138). Nitrite content closely parallels iNOS function.
Potency was determined as the concentration (ng/mL) of glycolipid in culture capable of inducing one-half maximal induction of nitrite (ED50). The lower the ED50 number, the greater the potency for iNOS induction. The ED50 was cacluated according to methods set out in Johnson et al., (1999) J Med Chem. 42: 4640-4649.

Rabbit pyrogen test = format: in vivo; settings: i.v. 10 μg/Kg dose
From the text: In an effort to obtain an immunostimulant that has low pyrogenicity, synthetic molecules have been prepared which share structural similarities with the MPL® immunostimulant (see U.S. patent application Ser. No. 09/810,915, Filed on Mar. 16, 2001, and the present invention). These novel molecules which are collectively called aminoalkyl glucosaminide phosphates (AGPs), consist of an acylated […] moiety linked to an acylated aminoalkyl group (Johnson et al. (1999) Bioorg. Med. Chem. Lett. 9: 2273-2278; PCT/WO98/50399 and references therein). […] The substitution of different chemical moieties within the aminoalkyl structures was designed into the AGPs in anticipation of optimizing stability and solubility properties. Thus the AGPs can be broadly separated into several families based on the structure of their aminoalkyl groups. […] Here we report on studies of the adjuvant properties of a class of AGPs which induce minimal activity in both the rabbit pyrogen test and the ex vivo cytokine assay.

[2] = anti-HBsAg, 2.0 μg HBsAg + 25 μg adjuvant s.c. day 0 and 21, pooled sera 21 days post secondary
[3] = anti-HBsAg, 2 μg HBsAg + 20 μg adjuvant s.c. day 0 and 21, pooled sera 21 days post-secondary

## N—[(R)-3-Tetradecanoyloxytetradecanoyl]-(S)-2-pyrrolidinomethyl 2-Deoxy-4-O-phosphono-2-[(R)-3-tetradecanoyloxytetradecanoylamino]-3-O—[(R)-3-tetradecanoyloxytetradecanoyl]-β-D-glucopyranoside Triethylammonium Salt [RC-553]
HBsAg; Example 4
  HBsAg titers versus control group which received antigen in PBS: increased titers compared to the control group
HBsAg; [2]
  Serum Titers IgG1: 32,000
  Serum Titers IgG2a: 2,048,000
TNF-α
  Levels of TNF-α produced: did not produce levels of TNF-α that could be detected
IL-1β; 1, 5, and 10 μg/ml, 4 hr at 37° C.
  Levels of IL-1β produced: did not produce detectable levels of IL-1β
IL-1β; relative to MPL® immunostimulant = 1
  Relative induction of cytokines (IL-1β), MPL® immunostimulant assigned a value of 1: ≤ 0.05
[1]; Example 2
  anti-HBsAg responses (serum titers) versus antigen alone: significantly higher than control sera receiving antigen alone
[1]; [3]
  Serum Titers IgG: 409,600
  Serum Titers IgG1: 204,800
  Serum Titers IgG2a: 409,600
  Serum Titers IgG2b: 51,200
iNOS
  Maximal iNOS activity / iNOS induction: essentially inactive
Rabbit pyrogen test; Table 2
  Pyrogenicity (total rise in ° C. of 3 rabbits): 0.3 °C
Rabbit pyrogen test; Table 3
  Pyrogenicity (total rise in ° C. of 3 rabbits): 0.3 °C
Rabbit pyrogen test; Table 4
  Pyrogenicity (total rise in ° C. of 3 rabbits): 0.3 °C
Rabbit pyrogen test; solubilized in 10% EtOH/WFI, diluted with 5% dextrose in water, Table 1
  Pyrogenicity (total rise in ° C. of 3 rabbits): 0.3 °C
